Experiment [1] deals with T1, PTPN2 (HiBIT-PTPN2 in 293T.109 cells) (Homo sapiens, UniProt P17706).
T1 construct: expressed in transfected cells; host or cells: 293T.109 (293T WT from ATCC)
T1 sequence (P17706 1-415): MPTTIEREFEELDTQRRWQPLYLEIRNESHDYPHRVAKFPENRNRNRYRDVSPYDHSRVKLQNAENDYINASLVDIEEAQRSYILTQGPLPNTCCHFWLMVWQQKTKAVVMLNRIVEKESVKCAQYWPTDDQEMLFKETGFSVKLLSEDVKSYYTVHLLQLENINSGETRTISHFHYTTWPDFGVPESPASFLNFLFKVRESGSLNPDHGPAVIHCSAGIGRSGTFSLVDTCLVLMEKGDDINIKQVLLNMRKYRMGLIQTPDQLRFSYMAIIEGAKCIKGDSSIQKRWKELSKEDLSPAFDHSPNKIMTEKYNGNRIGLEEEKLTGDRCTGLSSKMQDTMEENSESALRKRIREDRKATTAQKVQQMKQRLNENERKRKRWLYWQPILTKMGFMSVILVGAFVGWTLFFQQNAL
In words: HiBiT Degradation 293T.109 PTPN2 (Nano-Glo HiBiT Lytic Assay). In kind it is cell-based. The note with it: 24.0 hours. An excerpt: Dulbecco's modified Eagle medium (DMEM) without phenol red and fetal bovine serum (FBS) were purchased from Gibco (Grand Island, NY, USA). Nano-Glo® HiBIT Lytic Assay System was purchased from Promega (Madison, WI, USA). 293T.109 (HiBIT-PTPN2) cell line was generated by ectopically expressing PTPN2 with N-terminal HiBIT fusion tag in 293T WT cell line purchased from ATCC (Manassas, VA, USA). Cell culture flasks and 384-well microplates were acquired from VWR (Radnor, PA, USA).
PTPN2 degradation was determined based on quantification of luminescent signal using Nano-Glo® HiBIT Lytic Assay kit. Test compounds were added to the 384-well plate from a top concentration of 10 μM with 11 points, half log titration in duplicates. 293T.109 cells were added into 384-well plates at a cell density of 5000 cells per well. The plates were kept at 37° C. with 5% CO2 for 24 hours. The cells treated in the absence of the test compound were the negative control and the cells without Nano-Glo® HiBIT Lytic reagent were the positive control. After 24-hour incubation, Nano-Glo® HiBiT Lytic Assay reagents were added to the cells. Luminescence was acquired on EnVision™ Multilabel Reader (PerkinElmer, Santa Clara, CA, USA).
(In general: HiBiT is a short tag that completes a luciferase, so light tracks the accessible tagged protein.)

The target in a further experiment is T2, PTPN2 (B16F10.4 cells) (Mus musculus, UniProt Q06180).
T2 construct: HiBiT; host or cells: B16F10.4
T2 sequence (Q06180 1-406): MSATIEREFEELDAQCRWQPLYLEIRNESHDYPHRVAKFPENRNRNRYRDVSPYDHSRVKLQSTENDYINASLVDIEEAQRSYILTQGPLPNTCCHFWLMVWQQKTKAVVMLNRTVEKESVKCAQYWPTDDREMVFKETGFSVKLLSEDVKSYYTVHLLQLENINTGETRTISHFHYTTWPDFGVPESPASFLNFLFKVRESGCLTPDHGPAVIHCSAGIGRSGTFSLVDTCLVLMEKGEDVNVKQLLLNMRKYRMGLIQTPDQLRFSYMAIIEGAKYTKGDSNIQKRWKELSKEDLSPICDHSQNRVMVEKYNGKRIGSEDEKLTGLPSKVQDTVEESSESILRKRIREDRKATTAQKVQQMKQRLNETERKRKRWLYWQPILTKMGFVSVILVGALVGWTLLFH
Description: HiBiT Degradation B16F10.4 PTPN2. In kind it is cell-based. The note with it: 24.0 hours.

Structures are written as SMILES. Some results are limits rather than exact numbers.

With `CC1(C)C[C@@H](Nc2cccc(-c3sc(C(=O)O)c(OCC(=O)O)c3Cl)c2F)CCN1S(=O)(=O)Cc1ccc(F)c(NC(=O)N2CCC(c3ccc4c5c(cccc35)C(=O)N4C3CCC(=O)NC3=O)CC2)c1` (single isomer, unassigned) [Example 167], the 50% degradation concentration (DC50) (commonly the concentration giving 50% degradation) in experiment [1] was 50 to 200 nM; at PTPN2 (B16F10.4 cells), < 50 nM.
In the same order, the values of `CC1(C)C[C@@H](Nc2cccc(-c3sc(C(=O)O)c(OCC(=O)O)c3Cl)c2F)CCN1S(=O)(=O)Cc1ccc(F)c(NC(=O)C2CN(C(=O)CNc3cccc4c3CN(C3CCC(=O)NC3=O)C4=O)C2)c1` (stereo partly drawn) [Example 148, 3-(carboxymethoxy)-4-chloro-5-[3-[[(4S)-1-[[3-[[1-[2-[[2-(2,6-dioxo-3-piperidyl)-1-oxo-isoindolin-4-yl]amino]acetyl]azetidine-3-carbonyl]amino]-4-fluoro-phenyl]methylsulfonyl]-2,2-dimethyl-4-piperidyl]amino]-2-fluoro-phenyl]thiophene-2-carboxylic acid] are < 50 nM and 50 to 200 nM.
In the same order, the values of `O=C(O)COc1c(C(=O)O)sc(-c2cccc(NC3CCN(S(=O)(=O)Cc4ccc(F)c(NC(=O)C5CN(C(=O)CNc6cccc7c6CN(C6CCC(=O)NC6=O)C7=O)C5)c4)CC3)c2)c1Cl` (centres unmarked) [Example 78] are < 50 nM and ≥ 1000 nM.
For `C[C@H]1CN(C(=O)Nc2cccc(CS(=O)(=O)N3CC[C@H](Nc4cccc(-c5sc(C(=O)O)c(OCC(=O)O)c5Cl)c4)CC3(C)C)c2)CCN1c1ccc2c(c1)n(C)c(=O)n2C1CCC(=O)NC1=O` (some centres unmarked) [Example 210], in that order: 50 to 200 nM and 50 to 200 nM.
In the case of `Cn1c(=O)n([C@H]2CCC(=O)NC2=O)c2ccc([C@@H]3CCN(C(=O)Nc4cccc(CS(=O)(=O)N5CC[C@H](Nc6cccc(-c7sc(C(=O)O)c(OCC(=O)O)c7Cl)c6)CC5(C)C)c4)CC3(F)F)cc21` (single isomer, unassigned) [Example 169a], the DC50 (in experiment [1]; on PTPN2 (B16F10.4 cells)) was < 50 nM each time.
`CN(c1cccc(-c2sc(C(=O)O)c(OCC(=O)O)c2Cl)c1)C1CCN(S(=O)(=O)Cc2cccc(NC(=O)CCn3cc(CNc4cccc5c4C(=O)N(C4CCC(=O)NC4=O)C5=O)nn3)c2)CC1` (centres unmarked) [Example 17, 3-(carboxymethoxy)-4-chloro-5-(3-((1-((3-(3-(4-(((2-(2,6-dioxopiperidin-3-yl)-1,3-dioxoisoindolin-4-yl)amino)methyl)-1H-1,2,3-triazol-1-yl)propanamido)benzyl)sulfonyl)piperidin-4-yl)(methyl)amino)phenyl)thiophene-2-carboxylic acid]: the DC50 (in experiment [1]; at PTPN2 (B16F10.4 cells)) was ≥ 1000 nM throughout.
On to `Cn1c(=O)n(C2CCC(=O)NC2=O)c2ccc(NC3CN(C(=O)Nc4cccc(CS(=O)(=O)N5CC[C@H](Nc6cccc(-c7sc(C(=O)O)c(OCC(=O)O)c7Cl)c6)CC5(C)C)c4)C3)cc21` (some centres unmarked) [Example 79], for which the figures for the DC50 (in experiment [1]; at PTPN2 (B16F10.4 cells)) were < 50 nM and 50 to 200 nM, respectively.
For `O=C(O)COc1c(C(=O)O)sc(-c2cccc(NC3CCN(S(=O)(=O)Cc4ccc(F)c(NC(=O)C5CCN(C(=O)CNc6cccc7c6CN(C6CCC(=O)NC6=O)C7=O)CC5)c4)CC3)c2)c1Cl` (centres unmarked) [Example 77], in that order: 50 to 200 nM and ≥ 1000 nM.
In the case of `CC1(C)C[C@@H](Nc2cccc(-c3sc(C(=O)O)c(OCC(=O)O)c3Cl)c2)CCN1S(=O)(=O)Cc1cccc(NC(=O)CCCNC(=O)CNc2cccc3c2CN(C2CCC(=O)NC2=O)C3=O)c1` (stereo partly drawn) [Example 28, 3-(carboxymethoxy)-4-chloro-5-(3-(((4S)-1-((3-(4-(2-((2-(2,6-dioxopiperidin-3-yl)-1-oxoisoindolin-4-yl)amino)acetamido)butanamido)benzyl)sulfonyl)-2,2-dimethylpiperidin-4-yl)amino)phenyl)thiophene-2-carboxylic acid], the figures for the half-maximal degradation concentration (DC50) (in experiment [1]; on PTPN2 (B16F10.4 cells)) were 200 to 1000 nM and ≥ 1000 nM, respectively.
In the same order, the values of `Cn1c(=O)n(C2CCC(=O)NC2=O)c2ccc(-c3cccc(CC(=O)Nc4cccc(CS(=O)(=O)N5CC[C@H](Nc6cccc(-c7sc(C(=O)O)c(OCC(=O)O)c7Cl)c6)CC5(C)C)c4)c3)cc21` (stereo partly drawn) [Example 192, 3-(carboxymethoxy)-4-chloro-5-(3-(((4S)-1-((3-(2-(3-(1-(2,6-dioxopiperidin-3-yl)-3-methyl-2-oxo-2,3-dihydro-1H-benzo[d]imidazol-5-yl)phenyl)acetamido)benzyl)sulfonyl)-2,2-dimethylpiperidin-4-yl)amino)phenyl)thiophene-2-carboxylic acid] are 50 to 200 nM and 50 to 200 nM.
In the same order, the values of `CC1(C)C[C@@H](Nc2cccc(-c3sc(C(=O)O)c(OCC(=O)O)c3Cl)c2)CCN1S(=O)(=O)Cc1cccc(NC(=O)C2CCN(C(=O)CNc3ccc4c(c3)C(=O)N(C3CCC(=O)NC3=O)C4=O)CC2)c1` (stereo partly drawn) [Example 43, 3-(carboxymethoxy)-4-chloro-5-[3-[[(4S)-1-[[3-[[1-[2-[[2-(2,6-dioxo-3-piperidyl)-1,3-dioxo-isoindolin-5-yl]amino]acetyl]piperidine-4-carbonyl]amino]phenyl]methylsulfonyl]-2,2-dimethyl-4-piperidyl]amino]phenyl]thiophene-2-carboxylic acid] are 50 to 200 nM and ≥ 1000 nM.
In the same order, the values of `CC1(C)C[C@@H](Nc2cccc(-c3sc(C(=O)O)c(OCC(=O)O)c3Cl)c2)CCN1S(=O)(=O)Cc1cccc(NC(=O)N2CCC(c3ccc4c(ccn4C4CCC(=O)NC4=O)c3)CC2)c1` (stereo partly drawn) [Example 196, 3-(carboxymethoxy)-4-chloro-5-(3-(((4S)-1-((3-(4-(1-(2,6-dioxopiperidin-3-yl)-1H-indol-5-yl)piperidine-1-carboxamido)benzyl)sulfonyl)-2,2-dimethylpiperidin-4-yl)amino)phenyl)thiophene-2-carboxylic acid] are 200 to 1000 nM and 200 to 1000 nM.
For the compound `CC1(C)C[C@@H](Nc2cccc(-c3sc(C(=O)O)c(OCC(=O)O)c3Cl)c2)CCN1S(=O)(=O)Cc1cccc(NC(=O)COC2CCN(C(=O)CNc3cccc4c3CN(C3CCC(=O)NC3=O)C4=O)CC2)c1` (some centres unmarked) [Example 90], the half-maximal degradation concentration (DC50) in experiment [1] is < 50 nM; at PTPN2 (B16F10.4 cells), 200 to 1000 nM.
In the same order, the values of `Cn1c(=O)n(C2CCC(=O)NC2=O)c2ccc(C3CCN(CC(=O)Nc4cccc(CS(=O)(=O)N5CCC(Nc6cccc(-c7sc(C(=O)O)c(OCC(=O)O)c7Cl)c6)CC5)c4)CC3)cc21` (centres unmarked) [Example 55, 3-(carboxymethoxy)-4-chloro-5-[3-[[1-[[3-[[2-[4-[1-(2,6-dioxo-3-piperidyl)-3-methyl-2-oxo-benzimidazol-5-yl]-1-piperidyl]acetyl]amino]phenyl]methylsulfonyl]-4-piperidyl]amino]phenyl]thiophene-2-carboxylic acid] are 50 to 200 nM and 50 to 200 nM.
In the case of `O=C(O)COc1c(C(=O)O)sc(-c2cccc(NC3CCN(S(=O)(=O)Cc4cccc(NC(=O)CCCCCCNC(=O)CNc5ccc6c(c5)CN(C5CCC(=O)NC5=O)C6=O)c4)CC3)c2)c1Cl` (centres unmarked) [Example 25, 3-(carboxymethoxy)-4-chloro-5-[3-[[1-[[3-[7-[[2-[[2-(2,6-dioxo-3-piperidyl)-1-oxo-isoindolin-5-yl]amino]acetyl]amino]heptanoylamino]phenyl]methylsulfonyl]-4-piperidyl]amino]phenyl]thiophene-2-carboxylic acid], the DC50 (in experiment [1]; on PTPN2 (B16F10.4 cells)) was 200 to 1000 nM in each case.
For the compound `CC1(C)C[C@@H](Nc2cccc(-c3sc(C(=O)O)c(OCC(=O)O)c3Cl)c2)CCN1S(=O)(=O)Cc1cccc(NC(=O)N2CCC(c3ccc4c(c3)n(CC(F)(F)F)c(=O)n4C3CCC(=O)NC3=O)CC2)c1` (stereo partly drawn) [Example 155, 3-(carboxymethoxy)-4-chloro-5-[3-[[(4S)-1-[[3-[[4-[1-(2,6-dioxo-3-piperidyl)-2-oxo-3-(2,2,2-trifluoroethyl)benzimidazol-5-yl]piperidine-1-carbonyl]amino]phenyl]-methylsulfonyl]-2,2-dimethyl-4-piperidyl]amino]phenyl]thiophene-2-carboxylic acid], the DC50 (in experiment [1]; on PTPN2 (B16F10.4 cells)) was 50 to 200 nM throughout.

These data come from patent publication US20250302815A1, “PROTEIN TYROSINE PHOSPHATASE TARGETING LIGANDS” (CALICO LIFE SCIENCES LLC, priority 2021, published 2025).
